Measured values published in patent US20130065964A1, “PERITONEAL DIALYSIS SOLUTION” (UNIVERSIDAD DE CASTILLA LA MANCHA, priority 2010, published 2013).

How the values were obtained:
[1] = tested on: caspase-3; test: Caspase-3 activity (Z-DEVD-AFC fluorescence); type: cell-based; conditions: rat PMCs, D-glucose 50 mM, 24 hours, aliskiren 10-100 μM, FIG. 7
Procedure: (§1) The cells were incubated in D-glucose at 50 mM for 24 hours in the presence or absence of aliskiren (10-100 μM), and caspase-3 activity was measured as described in Material and Methods. The data is expressed as mean±SEM, n=3. * p<0.05 compared to the control (C). # p<0.05 compared to untreated cells (control). # p<0.05, compared to cells treated with D-glucose in the presence of carrier (0).
(§2) Rat peritoneal mesothelial cells were isolated by enzymatic digestion in accordance with protocols described in Hjelle J T, Golinska B T, Waters D C, et al. Perit Dial Int 1989; 9: 341-7. Briefly, female rats weighing 200-400 g of the Spragle-Dawley strain were sacrificed pursuant to Royal Decree 1201/2005, of 10 Oct., on protection of animals used for experimental and other scientific purposes. […]
In order to determine caspase-3 activity (Posadas I, Vellecco V, Santos P, et al. Br J Pharmacol 2007; 150: 577-85), the rat mesothelial cells were seeded on 6-well plates until reaching a confluence of 80%. […] After incubation, the samples were centrifuged at 13,000 rpm for 15 minutes at 4° C. and the protein concentration in the supernatants was determined using the Bradford method, following the standard protocol. […] Fluorescence emission was determined on a spectrofluorimeter (Tecan, Austria) at an excitation wavelength of 400 nm and an emission wavelength of 505 nm.

[2] = tested on: reactive oxygen species (ROS) in rat PMCs; test: Reactive oxygen species by flow cytometry (DCF); type: cell-based; conditions: D-glucose 50 mM and 83 mM, 8 hours, aliskiren 10-100 μM, FIG. 6
Procedure: as §1, with “mM (A) and 83 mM (B)” for “mM”, “8” for “24”, “μM)” for “μM),”, “dichlorofluorescein (DCF) intensity” for “caspase-3 activity”, “measured using flow cytometry,” for “measured”, “*” for “* p<0.05 compared to the control (C). #”
as §2, with “purposes. The abdominal cavity was quickly opened and the abdominal wall (peritoneum and smooth muscle) extracted under sterile conditions.” for “purposes.”
After washing with PBS, the cells were incubated with 5.6-chloromethyl-2,7-dichlorodihydrofluorescein diacetate (CM-H2DCFDA, Invitrogen) for 15 minutes at 37° C., following the standard protocol (Lee H B, 2004). […] The production of reactive oxygen species was calculated on the basis of evaluation of 10,000 cells per experimental condition.

activation of caspase [1]: prevented
SMILES: COCCCOc1cc(C[C@@H](C[C@H](N)[C@@H](O)C[C@H](C(=O)NCC(C)(C)C(N)=O)C(C)C)C(C)C)ccc1OC [aliskiren]
production of reactive oxygen species [2]: prevented
